Assay results as given in patent publication US11123304B2, “Nanoparticles having poly(ester amide) polymer cores as drug delivery vehicles” (The Brigham and Women's Hospital, Inc., priority 2017, dated 2021).

Legend:
blood glucose levels [1] = test: Bioactivity of insulin released from NPs, subcutaneous injection; assay type: in vivo, Sprague Dawley rats; conditions: 2 U/kg subcutaneous, insulin released in PBS 2 hours at 37° C.
Procedure: To study the bioactivity of insulin after the preparation and drug release process, NPs were allowed to release insulin in PBS for 2 hours at 37° C. Then the NPs were isolated from the released insulin by ultra-centrifugation. Sprague Dawley rats (Dashuo Laboratory Animal Center) (n=4 per group) were fasted overnight, and then administered the released insulin (2 U/kg) or original free insulin (2 U/kg) and saline, by subcutaneous injection. Blood glucose levels were measured with the AlphaTRAK blood glucose monitoring system (Abbott).

blood glucose levels [2] = test: Hypoglycemic effect of oral insulin-loaded NPs in normal rats; assay type: in vivo, Sprague Dawley rats; conditions: subcutaneous injection
Procedure: Sprague Dawley rats (n=6 per group) were fasted overnight before experiments, but allowed free access to water. The animals were administered Tf-coated NPs and BSA-coated NPs (PEA75) in PBS (1.5 mL per 100 g of body weight), at an insulin dose of 50 U/kg, by oral gavage. Tf-coated NPs were tested with four different formulations, including PEA50 NPs, PEA75 NPs, PLGA-PEA50 NPs, and PLGA-PEA75 NPs. As controls, saline and free insulin (50 U/kg) were administered by oral gavage. One group of animals was administered with insulin solution (2 U/kg) by subcutaneous (SC) injection, which was used for the calculation of relative pharmacological availability (PA %). The blood glucose levels were measured as described above, and the pharmacological availability for different formulations was calculated relative to the SC route. […] All four tested Tf-coated NPs elicited a significant hypoglycemic response, reducing glucose during the first 1-6 hours after administration as shown in Table 3.

blood glucose levels [3] = test: Hypoglycemic effect of oral insulin-loaded NPs in diabetic mice; assay type: in vivo, BALB/c mice; conditions: subcutaneous injection
Procedure: For the evaluation of in vivo efficacy in diabetic animals, insulin-dependent (type 1) diabetes was induced in male BALB/c mice (Charles River Laboratories) by a single injection of streptozotocin solution ([…]) as previously described (see, e.g., 7. S. Arora, S. K. Ojha, D. Vohora, Global J. Pharmacol. 2009, 3, 81-84). Animals were considered to be diabetic if they had fasting glycemia higher than 16.0 mM one week after the injection. The diabetic mice (n=6 per group) were fasted overnight and then administered different samples by gavage, including saline, free insulin, Tf-coated NPs (PEA75), and BSA-coated NPs (PEA75) (insulin dose of 50 U/kg, 1.5 mL per 100 g of body weight). One group of animals was administered an insulin solution (5 U/kg) by subcutaneous (SC) injection. The blood glucose levels were measured as described above, and the pharmacological availability for different formulations was calculated relative to the SC route.

Substance	Hypoglycemic response of released insulin (blood glucose levels [1])	AAC (area above the serum glucose concentration curve) (blood glucose levels [2]; 2 U/kg) [%*h]	Tmax (blood glucose levels [2]; 2 U/kg) [min]	PA (relative pharmacological availability) (blood glucose levels [2]; 2 U/kg (reference route)) [%]	AAC (area above the serum glucose concentration curve) (blood glucose levels [3]; 5 U/kg) [%*h]	Tmax (blood glucose levels [3]; 5 U/kg) [min]	PA (relative pharmacological availability) (blood glucose levels [3]; 5 U/kg (reference route)) [%]
released insulin: insulin released from the NPs in PBS for 2 hours at 37° C. and separated by ultra-centrifugation	hypoglycemic response analogous to an equivalent dose of free insulin solution						
insulin [Free Insulin]		92.8	30	100.0	227.5	60	100.0
